The record followed here is US20040127577A1 (priority 2002, published 2004).

Several values for one entry are separate records, joined by “and”; a condition that tells them apart may be missing. Identical values can stand only once. Like-named read-outs stand apart in the source and are kept apart here.

Series [1] concerns SOD1 transgenic mice. The conditions noted are these: for Mean Survival: drinking water from 60 days of age, N=15. On the procedure: (§1) Another group of 15 mice served as controls.
(§2) The drugs were administered by drinking water starting at 60 days of age. The daily dosages were calculated based on a daily water intake of 6 ml. Fresh solutions were prepared once a week with the total consumed volume measured in order to ensure a constant daily and weekly dose. […] The study was done blindly, meaning that the treatment and the preparation of the drugs were conducted by separate individuals.
The clinical condition of the mice was monitored daily starting at 40 days. The onset of clinical signs was scored by examining the mice for tremors and/or shaking of the limbs, and the position of one or both hind limbs (hanging rather than splaying out) when the mice were suspended in the air by their tail. The age of clinical onset was determined by the age (days) at which loss of splay or tremors of hind limbs were observed. Examining the mice for the loss of righting reflex determined the end stage of the disease. The mice were sacrificed if they could not right themselves within 30 seconds when placed on either side on a flat surface. This decision was made by an independent veterinarian as requested by the animal protocol. The treatment protocol was approved by the Regierungspräsident Tübingen (35/9185.81-3). The treatment and clinical evaluation were conducted by separate individuals, and thus the neurological signs for determining onset and end stage of disease were scored in a blinded manner.
(§3) Data are expressed as the mean +/−standard error of the mean (SEM). Rotarod testing and weight were compared by analysis of variance (ANOVA). Survival data were analysed by the Mantel-Cox proportional hazard model. Statistical significance was tested by one-way ANOVA followed by post-hoc Student-Newman-Keuls comparison with the SPSS-PC software program (SPSS, Chicago Ill.).

Series [2] concerns SOD1 transgenic mice. To be noted: mouse, in vivo. How it is done:
as §2
(§4) Mice were observed daily (including weekends) and weighed weekly. Motor performance was assessed from 40 days of age using the rotarod apparatus to measure the night activity of the mice from 8 p.m.-8 a.m. (LMTB, Berlin). The activity of the animals was recorded individually by a computerized system and assessed daily, including weekends. For statistical evaluation, the rotarod activity was normalized to the mean activity of each animal from day 40 to day 60.
The clinical condition of the mice was monitored daily starting at 40 days. The onset of clinical signs was scored by examining the mice for tremors and/or shaking of the limbs, and the position of one or both hind limbs (hanging rather than splaying out) when the mice were suspended in the air by their tail. The age of clinical onset was determined by the age (days) at which loss of splay or tremors of hind limbs were observed. Examining the mice for the loss of righting reflex determined the end stage of the disease. […]

For series [3], the system named is SOD1 transgenic mice. The series is described as follows: Running wheel (rotarod) night activity of SOD1 transgenic mice. The format is in vivo. Set-up: unit not given here. How it is done:
as §1, §2, §4, §3

On to `C#CCN[C@@H]1CCc2ccccc21` [rasagiline, R(+)-N-propargyl-1-aminoindan], for which the “Mean Survival” value was 224 days and 223.8667 days in the series with SOD1 transgenic mice [1] (rasagiline 0.5 mg/kg per day); 239.8667 days and 239.8677 days in the series on SOD1 transgenic mice [1] (rasagiline 2.0 mg/kg per day). Besides, the “increase of life span vs controls” value with SOD1 transgenic mice [1] (rasagiline 2.0 mg/kg per day, p<0.001) is listed as 29 days. Moreover, the “signs of overt toxicity” value in the series with SOD1 transgenic mice [2] is given as “did not observe any signs of overt toxicity”. In addition, the running wheel activity with SOD1 transgenic mice [3] (rasagiline 0.5 mg/kg, Weeks 9-12) was 10087; in the series on SOD1 transgenic mice [3] (rasagiline 0.5 mg/kg, Weeks 13-16), 9037.14; in the series with SOD1 transgenic mice [3] (rasagiline 0.5 mg/kg, Weeks 17-20), 8124.12; in the series with SOD1 transgenic mice [3] (rasagiline 0.5 mg/kg, Weeks 21-24), 6070.08; in the series with SOD1 transgenic mice [3] (rasagiline 0.5 mg/kg, Weeks 25-28) it was 4236.96; with SOD1 transgenic mice [3] (rasagiline 0.5 mg/kg, Weeks 29-36), 1196.69. The running wheel activity in the series with SOD1 transgenic mice [3] (rasagiline 2.0 mg/kg, Weeks 9-12) is recorded as 11056; with SOD1 transgenic mice [3] (rasagiline 2.0 mg/kg, Weeks 13-16), 9999.44; in the series on SOD1 transgenic mice [3] (rasagiline 2.0 mg/kg, Weeks 17-20) it was 8787.09; in the series on SOD1 transgenic mice [3] (rasagiline 2.0 mg/kg, Weeks 21-24) it was 7873.22; in the series with SOD1 transgenic mice [3] (rasagiline 2.0 mg/kg, Weeks 25-28) it was 5902.76; in the series with SOD1 transgenic mice [3] (rasagiline 2.0 mg/kg, Weeks 29-36) it was 2147.29.

Regarding `Nc1nc2ccc(OC(F)(F)F)cc2s1` [riluzole, 2-amino-6-trifluoromethoxy benzothiazole], the running wheel activity in the series on SOD1 transgenic mice [3] (riluzole 30 mg/kg, Weeks 9-12) is given as 9729.58; in the series on SOD1 transgenic mice [3] (riluzole 30 mg/kg, Weeks 13-16), 7556.57; in the series on SOD1 transgenic mice [3] (riluzole 30 mg/kg, Weeks 17-20), 7033.85; in the series on SOD1 transgenic mice [3] (riluzole 30 mg/kg, Weeks 21-24), 4687.05; in the series on SOD1 transgenic mice [3] (riluzole 30 mg/kg, Weeks 25-28), 2696.11; with SOD1 transgenic mice [3] (riluzole 30 mg/kg, Weeks 29-36), 1249.13.
